From patent publication US20230271959A1, “HETEROCYCLIC COMPOUND AS BCL-2 INHIBITOR” (Beijing Innocare Pharma Tech Co., Ltd., priority 2020, published 2023) come the findings set out here.

The structures appear in SMILES notation. Bounds are passed on as bounds.

Assay [1] concerns the target T1, human recombinant Bcl-2 protein (Homo sapiens, UniProt P10415).
T1 construct: purchased Beijing Yigiao Shenzhou Biotechnology Co., Ltd. 10195-HOSE
Nature of the assay: Fluorescence polarization test for inhibition of BCL-2 binding to FITC-BIM. The settings on record: 5 nM BCL-2, 5 nM FITC-BIM, read-out: FP BCL-2 IC50. As for the experimental part:
Fluorescence polarization assay was used to evaluate the effect of the compounds of the present invention on the biological activity of BCL-2.
The effects of the compounds on the biological activity of BCL-2 were evaluated by determining the effects of the compounds on the binding activity of BCL-2 to leukemia pro-apoptotic protein (BIM) using an affinity assay method based on the principle of fluorescence polarization. The reaction buffer comprises the following components: PBS (pH 7.4, 3 mM Na2HPO4, 155 mM NaCl, 1 mM KH2PO4), 1 mM DTT; human recombinant Bcl-2 protein (Item No. 10195-HOSE) (purchased from Beijing Yigiao Shenzhou Biotechnology Co., Ltd.) was diluted to 5 nM with the reaction buffer; FITC-labeled BIM polypeptide (purchased from Nanjing GenScript Biotechnology Co., Ltd.) was diluted to 5 nM with the reaction buffer.
The compounds were dissolved in 100% DMSO and diluted to 0.1, 1, 10 μM, followed by 4-fold serial dilutions with DMSO to a minimum concentration of 0.0061, 0.061, 0.61 nM, each concentration point was further diluted 50-fold with the reaction buffer.
3 μL of solution containing the compound and 12 μL of solution containing BCL-2 were added to the black 384-well assay plate, mixed well, and incubated at room temperature for 15 minutes. Subsequently, 15 μL of FITC-BIM solution was added, and the reaction mixture was incubated at room temperature for 30 minutes in dark place, and then the fluorescence polarization was detected immediately on an Envision multi-mode reader (Perkin Elmer), with 480 nm as the excitation wavelength and 535 nm as the emission wavelength. In this experiment, the group without BCL-2 protein was used as a negative control (100% inhibition), and the group with BCL-2 protein but without the compound was used as a positive control (0% inhibition). The inhibition percentage of the compound to the affinity of BCL-2 can be calculated using the following equation: […]
(§1) The IC50 of the compound was calculated from 8 concentration points using XLfit (ID Business Solutions Ltd., UK) software by the following equation:
(§2) Y=Bottom+(Top−Bottom)/(1+10^((log IC50−X)*slope factor))
(§3) where Y is the inhibition percentage, X is the logarithm of the concentration of the compound to be tested, Bottom is the maximum inhibition percentage, Top is the minimum inhibition percentage, and slope factor is the slope coefficient of the curve.
Background: In fluorescence polarisation assays a small probe gives low polarisation when free and higher when bound to something large.

Assay [2] has as its target T2, human recombinant Bcl-XL protein (Homo sapiens, UniProt Q07817).
T2 construct: purchased Beijing Yiqiao Shenzhou Biotechnology Co., Ltd. 10455-H0SE
Briefly: Fluorescence polarization test for inhibition of BCL-XL binding to FITC-BIM. The note with it: 10 nM BCL-XL, 10 nM FITC-BIM, read-out: FP BCL-XL IC50. As for the experimental part: Fluorescence polarization assay was used to evaluate the effect of the compounds of the present invention on the biological activity of BCL-XL.
The effects of the compounds on the biological activity of BCL-XL were evaluated by detecting the effects of the compounds on the binding activity of BCL-XL to BIM using an affinity assay method based on the principle of fluorescence polarization. The reaction buffer contains the following components: PBS (pH 7.4, 3 mM Na2HPO4, 155 mM NaCl, 1 mM KH2PO4), 1 mM DTT; human recombinant Bcl-XL protein (Item No. 10455-H0SE) (purchased from Beijing Yiqiao Shenzhou Biotechnology Co., Ltd.) was diluted to 10 nM with reaction buffer; FITC-labeled BIM polypeptide (purchased from Nanjing GenScript Biotechnology Co., Ltd) was diluted to 10 nM with reaction buffer.
The compounds were dissolved in 100% DMSO and diluted to 1 μM, followed by 4-fold serial dilutions in DMSO to a minimum concentration of 0.061 nM, each concentration point was further diluted 50-fold with reaction buffer.
3 μL of solution containing the compound and 12 μL of solution containing BCL-XL were added to the black 384-well assay plate, mixed well, and incubated at room temperature for 15 minutes. Subsequently, 15 μL of FITC-BIM solution was added, and the reaction mixture was incubated at room temperature for 30 minutes in the dark place, and then the fluorescence polarization was detected immediately on an Envision multi-plate reader (Perkin Elmer), with 480 nm as the excitation wavelength and 535 nm as the emission wavelength. In this experiment, the group without BCL-XL protein was used as a negative control (100% inhibition), and the group with BCL-XL protein but without the compound was added as a positive control (0% inhibition). The inhibition percentage of the compound to the affinity of BCL-XL can be calculated using the following equation: […]
as §1, §2, §3

The test system of assay [3] is RS4;11 cells (acute lymphoblastic leukemia cells). Briefly: RS4;11 cell proliferation, CellTilter-Glo luminescence cell viability assay. It is filed as cell-based. The note with it: Homo sapiens, RS4-11; CTG readout after 48 hours. On the procedure: The effects of the compounds of the present invention on the proliferation of RS4;11 cells were evaluated using a luminescence cell viability assay.
A CellTilter-Glo (CTG) Assay Kit is used to detect ATP, a key indicator of the metabolism of living cells, through a unique, highly sensitive and stable luciferase. The luminescent signal generated in the assay is proportional to the number of the viable cells in the medium, therefore the cell proliferation of RS4;11 can be determined.
CellTilter-Glo reagent (Promega, G7572) is composed of CellTilter-Glo lyophilized powder and CellTilter-Glo buffer, and the lyophilized powder can be dissolved in the buffer for use.
RS4;11 cells (ATCC, CRL-1873) were cultured in RPMI1640 complete medium (Thermofisher, 72400-047) containing 10% FBS (GBICO, 10099-141) and 100 units/ml penicillin-streptomycin solution (Thermofisher, 15140122)), when the cells covered 80-90% in the culture vessel, they were digested and dispersed with 0.25% trypsin (containing EDTA) (Thermofisher, 25200056) and then planted in a white 384-well plate (Thermofisher, 164610), and then the 384-well plate was incubated overnight in a 37° C., 5% CO2 incubator. Compounds were dissolved in 100% DMSO and diluted to […], followed by 4-fold serial dilutions with DMSO to a minimum concentration of 0.061 μM, and each concentration point was further diluted 50-fold with FBS-free RPMI1640 medium. If the IC50 of the compound is very low, the initial concentration of the compound can be reduced. After overnight, 3 μL of the compound diluted in the medium was added to each well, and the mixture was gently centrifuged to mix. The group without cells was used as a negative control (100% inhibition), and the group with 0.2% DMSO was used as a positive control (0% inhibition). The 384-well plate was placed in a 37° C., 5% CO2 incubator for further cultivation. After 48 hours, the plate was taken out and equilibrated to room temperature. 15 μl of CTG reagent was added to each well, the plate was shaken gently for 3 minutes to make sure that the cell lysis was carried out thoroughly, then the plate was kept for 10 minutes to stabilize the luminescence signal, then the luminescence signal was read by EnVision (Perkin Elmer).
The inhibition percentage of the compounds to RS4;11 cell proliferation can be calculated using the following equation:
Inhibition Percentage=100−100*(signal compound-signal negative control)/(signal positive control-signal negative control)
as §1
Y=Bottom+(Top−Bottom)/(1+10^((Log IC50−X)*slope factor))
wherein, Y is the inhibition percentage, Bottom is the bottom plateau of the curve (the bottom plateau value of the S-shaped curve), Top is the top plateau of the curve (the top plateau value of the S-shaped curve), and X is the logarithm of the concentration of the compound to be tested.

T2 sequence (Q07817 whole entry): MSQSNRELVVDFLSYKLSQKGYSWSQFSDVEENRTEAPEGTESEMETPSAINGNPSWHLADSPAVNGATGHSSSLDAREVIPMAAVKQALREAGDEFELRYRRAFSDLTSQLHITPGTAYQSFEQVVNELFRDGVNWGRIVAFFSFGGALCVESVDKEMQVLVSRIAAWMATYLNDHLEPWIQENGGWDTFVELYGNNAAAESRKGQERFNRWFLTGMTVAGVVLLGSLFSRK
T1 sequence (P10415 whole entry): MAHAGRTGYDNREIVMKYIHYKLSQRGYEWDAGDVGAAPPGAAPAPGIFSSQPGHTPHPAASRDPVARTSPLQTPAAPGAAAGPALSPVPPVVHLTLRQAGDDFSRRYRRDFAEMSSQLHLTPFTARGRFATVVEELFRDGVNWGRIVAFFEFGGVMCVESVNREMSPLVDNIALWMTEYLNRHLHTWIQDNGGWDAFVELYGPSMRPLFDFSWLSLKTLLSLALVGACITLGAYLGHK

As to `C[C@H]1CCC(CN2CCN(c3ccc(C(=O)NS(=O)(=O)c4ccc(NCC5CCOCC5)c([N+](=O)[O-])c4)c(Oc4cnc5[nH]ccc5c4)c3)C[C@H]2C)=C(c2ccc(Cl)cc2)C1` [Example 15, 2-((1H-pyrrolo[2,3-b]pyridin-5-yl)oxy)-4-((R)-4-(((S)-4′-chloro-5-methyl-3,4,5,6-tetrahydro-[1,1′-biphenyl]-2-yl)methyl)-3-methylpiperazin-1-yl)-N-((3-nitro-4-(((tetrahydro-2H-pyran-4-yl)methyl)amino)phenyl)sulfonyl)benzamide], the IC50 (in general, the point on the concentration scale where inhibition reaches its midpoint) was 5.99 nM in assay [1], greater than 1000 nM in assay [2] and 19 nM in assay [3].

Turning to `C[C@H]1CCC(CN2CCN(c3ccc(C(=O)NS(=O)(=O)c4ccc(NC[C@H]5COCCO5)c([N+](=O)[O-])c4)c(Oc4cnc5[nH]ccc5c4)c3)C[C@H]2C)=C(c2ccc(Cl)cc2)C1` [Example 16, N-((4-((((S)-1,4-dioxan-2-yl)methyl)amino)-3-nitrophenyl)sulfonyl)-2-((1H-pyrrolo[2,3-b]pyridin-5-yl)oxy)-4-((R)-4-(((S)-4′-chloro-5-methyl-3,4,5,6-tetrahydro-[1,1′-biphenyl]-2-yl)methyl)-3-methylpiperazin-1-yl) benzamide], the values for the IC50 in assay [1], in assay [2] and in assay [3] were 3.41 nM, greater than 1000 nM and 8.8 nM, respectively.

For `C[C@H]1CCC(CN2CCN(c3ccc(C(=O)NS(=O)(=O)c4cc(F)c(NC[C@H]5COCCO5)c([N+](=O)[O-])c4)c(Oc4cnc5[nH]ccc5c4)c3)C[C@H]2C)=C(c2ccc(Cl)cc2)C1` [Example 17, N-((4-((((S)-1,4-dioxan-2-yl)methyl)amino)-3-fluoro-5-nitrophenyl)sulfonyl)-2-((1H-pyrrolo[2,3-b]pyridin-5-yl)oxy)-4-((R)-4-(((S)-4′-chloro-5-methyl-3,4,5,6-tetrahydro-[1,1′-biphenyl]-2-yl)methyl)-3-methylpiperazin-1-yl)benzamide], the values for the IC50 in assay [1], in assay [2] and in assay [3] were 1.46 nM, 953 nM and 3.1 nM, respectively.

Regarding `C[C@@H]1CCC(CN2CCN(c3ccc(C(=O)NS(=O)(=O)c4ccc(NCC5CCOCC5)c([N+](=O)[O-])c4)c(Oc4cnc5[nH]ccc5c4)c3)C[C@H]2C)=C(c2ccc(Cl)cc2)C1` [Example 19, 2-((1H-pyrrolo[2,3-b]pyridin-5-yl)oxy)-4-((R)-4-(((R)-4′-chloro-5-methyl-3,4,5,6-tetrahydro-[1,1′-biphenyl]-2-yl)methyl)-3-methylpiperazin-1-yl)-N-((3-nitro-4-(((tetrahydro-2H-pyran-4-yl)methyl)amino)phenyl)sulfonyl)benzamide], the IC50 was 2.13 nM in assay [1], greater than 1000 nM in assay [2] and 4.25 nM in assay [3].

For the compound `C[C@@H]1CCC(CN2CCN(c3ccc(C(=O)NS(=O)(=O)c4ccc(NC[C@H]5COCCO5)c([N+](=O)[O-])c4)c(Oc4cnc5[nH]ccc5c4)c3)C[C@H]2C)=C(c2ccc(Cl)cc2)C1` [Example 20, N-((4-((((S)-1,4-dioxan-2-yl)methyl)amino)-3-nitrophenyl)sulfonyl)-2-((1H-pyrrolo[2,3-b]pyridin-5-yl)oxy)-4-((R)-4-(((R)-4′-chloro-5-methyl-3,4,5,6-tetrahydro-[1,1′-biphenyl]-2-yl)methyl)-3-methylpiperazin-1-yl)benzamide], the figures for the IC50 in assay [1], in assay [2] and in assay [3] were 2.57 nM, greater than 1000 nM and 8.8 nM, respectively.

`C[C@@H]1CCC(CN2CCN(c3ccc(C(=O)NS(=O)(=O)c4cc(F)c(NCC5CCOCC5)c([N+](=O)[O-])c4)c(Oc4cnc5[nH]ccc5c4)c3)C[C@H]2C)=C(c2ccc(Cl)cc2)C1` [Example 21, 2-((1H-pyrrolo[2,3-b]pyridin-5-yl)oxy)-4-((R)-4-(((R)-4′-chloro-5-methyl-3,4,5,6-tetrahydro-[1,1′-biphenyl]-2-yl)methyl)-3-methylpiperazin-1-yl)-N-((3-fluoro-5-nitro-4-(((tetrahydro-2H-pyran-4-yl)methyl)amino)phenyl)sulfonyl)benzamide]: the IC50 is 1.97 nM in assay [1], greater than 1000 nM in assay [2] and 8.8 nM in assay [3].

Regarding `C[C@@H]1CCC(CN2CCN(c3ccc(C(=O)NS(=O)(=O)c4cc(F)c(NC[C@H]5COCCO5)c([N+](=O)[O-])c4)c(Oc4cnc5[nH]ccc5c4)c3)C[C@H]2C)=C(c2ccc(Cl)cc2)C1` [Example 22], the IC50 in assay [1] was 1.49 nM; in assay [2] it was greater than 1000 nM; in assay [3] it was 4.1 nM.

As for `C[C@@H]1CCC(CN2CCN(c3ccc(C(=O)NS(=O)(=O)c4ccc(NCC5CCOCC5)c([N+](=O)[O-])c4)c(Oc4cnc5[nH]ccc5c4)c3)[C@H](C)C2)=C(c2ccc(Cl)cc2)C1` [Example 23, 2-((1H-pyrrolo[2,3-b]pyridin-5-yl)oxy)-4-((R)-4-(((R)-4′-chloro-5-methyl-3,4,5,6-tetrahydro-[1,1′-biphenyl]-2-yl)methyl)-2-methylpiperazin-1-yl)-N-((3-nitro-4-(((tetrahydro-2H-pyran-4-yl)methyl)amino)phenyl)sulfonyl)benzamide], the IC50 was 9.37 nM in assay [1], greater than 1000 nM in assay [2] and 51 nM in assay [3].
